In ChEMBL document CHEMBL1147590, “Synthesis and antitumor activity of s-tetrazine derivatives” (Bioorg Med Chem Lett, 2004):

What was measured:
A549 [1] = experiment: In vitro rate of inhibition of A-549 tumor cell growth at 10E-8 mol/L; type: functional, Homo sapiens; details: at 0.01 µM
P388 [2] = experiment: In vitro rate of inhibition of P388 tumor cell growth at 10E-7 mol/L; type: functional, Mus musculus; details: at 0.1 µM
P388 [3] = experiment: In vitro rate of inhibition of P388 tumor cell growth at 10E-4 mol/L; type: functional, Mus musculus; details: at 100 µM
P388 [4] = experiment: In vitro rate of inhibition of P388 tumor cell growth at 10E-8 mol/L; type: functional, Mus musculus; details: at 0.01 µM
A549 [5] = experiment: In vitro rate of inhibition of A-549 tumor cell growth at 10E-6 mol/L; type: functional, Homo sapiens; details: at 1 µM
A549 [6] = experiment: In vitro rate of inhibition of A-549 tumor cell growth at 10E-7 mol/L; type: functional, Homo sapiens; details: at 0.1 µM
P388 [7] = experiment: In vitro rate of inhibition of P388 tumor cell growth at 10E-5 mol/L; type: functional, Mus musculus; details: at 10 µM
A549 [8] = experiment: In vitro rate of inhibition of A-549 tumor cell growth at 10E-4 mol/L; type: functional, Homo sapiens; details: at 100 µM
P388 [9] = experiment: In vitro rate of inhibition of P388 tumor cell growth at 10E-6 mol/L; type: functional, Mus musculus; details: at 1 µM
A549 [10] = experiment: In vitro rate of inhibition of A-549 tumor cell growth at 10E-5 mol/L; type: functional, Homo sapiens; details: at 10 µM

SMILES	Rate of inhibition (A549 [1]) [%]	Rate of inhibition (P388 [2]) [%]	Rate of inhibition (P388 [3]) [%]	Rate of inhibition (P388 [4]) [%]	Rate of inhibition (A549 [5]) [%]	Rate of inhibition (A549 [6]) [%]	Rate of inhibition (P388 [7]) [%]	Rate of inhibition (A549 [8]) [%]	Rate of inhibition (P388 [9]) [%]	Rate of inhibition (A549 [10]) [%]
CC1=NN(C(=O)Nc2cccc(C(F)(F)F)c2)C(C)=NN1C(=O)Nc1cccc(C(F)(F)F)c1	16.1	0	73	0	8.9	10.7	28.6	39.3	9.5	10.7
Clc1ccc(-c2nnc(-c3ccc(Cl)cc3)nn2)cc1	0	19.4	52.3	16.1	0	0	35.1	0	29	0
CCCC1=NN(C(=O)OCC)C(CCC)N=N1 (stereo not given)	0	5	35.4	3.6	0	0	15	12.5	2.2	0
CC1=NN(C(=O)Nc2ccccc2Cl)C(C)=NN1C(=O)Nc1ccccc1Cl	0	0	90.5	0	0	0	41.3	28.8	1.6	0
CCCC1=NN(C(=O)Nc2cccc(Cl)c2)C(CCC)=NN1C(=O)Nc1cccc(Cl)c1	0	0	84.4	0	59.6	10.8	58.7	91.3	0	88.4
CCC1=NN(C(=O)Nc2cccc(C)c2)C(CC)=NN1C(=O)Nc1cccc(C)c1	1.6	0	91.6	0	81.1	16.7	63.5	90.4	0	84.1
CC1=NN(C(=O)Nc2cccc(Cl)c2)C(C)=NN1C(=O)Nc1cccc(Cl)c1	0	0	85.9	0	0	0	29.7	21.2	6.3	7.6
CCCC1NN(C(C)=O)C(CCC)NN1C(C)=O (stereo not given)	0	3.1	38.5	0	4	1.2	5.5	59.8	3.2	8.6
